Values of other authors, collected in PubChem BioAssay AID1259410 (Chemical Carcinogenesis Research Information System (CCRIS), 2018).

System: rodent tumor promotion studies, tumor incidence
Test: CCRIS tumor promotion studies
[1] = Carcinogen: 7,12-DIMETHYLBENZ(A)ANTHRACENE, Doses [Carcinogen]: TOP, Route [Carcinogen]: DERMAL, Route [Promoter]: DERMAL, Species: MOUSE, Strain/Sex: FEMALE

CC1=C(/C=C/C(C)=C/C=C/C(C)=C/C=C/C=C(C)/C=C/C=C(C)/C=C/C2=C(C)CCCC2(C)C)C(C)(C)CCC1
outcome (Carcinogen: 4-(N-METHYL-N-NITROSAMINO)-1-(3-PYRIDYL)-1-BUTANONE (NNK) [64091-91-4], Doses [Carcinogen]: 3.5 MG ON D 7, Doses [Promoter]: 0, 120, 600, 3000 PPM FROM START TO END AT 26 WKS (STUDY DURATION: 26 WKS), Doses [Promoter]: 0, 120, 600, 3000 PPM FROM START TO END AT 26 WKS (STUDY DURATION: 26 WKS), Route [Carcinogen]: IP INJECTION, Route [Promoter]: DIET, Species: MOUSE, Strain/Sex: A/J/MALE): lung - negative | outcome (Carcinogen: 4-(N-METHYL-N-NITROSAMINO)-1-(3-PYRIDYL)-1-BUTANONE (NNK) [64091-91-4], Doses [Carcinogen]: 3.5 MG ON D 15 (STUDY DURATION: 28 WKS), Doses [Promoter]: 600 PPM WKS 1 TO 3, WKS 6 TO 28 OR WKS 1 TO 28 (STUDY DURATION: 28 WKS), Route [Carcinogen]: IP INJECTION, Route [Promoter]: DIET, Species: MOUSE, Strain/Sex: A/J/MALE): lung - negative | outcome (Carcinogen: 4-(N-METHYL-N-NITROSAMINO)-1-(3-PYRIDYL)-1-BUTANONE (NNK) [64091-91-4], Doses [Carcinogen]: 5 MG ON D 28, Doses [Promoter]: 600 PPM FROM START TO WK 5, WK 3 TO 8, WKS 8 TO 24 OR FOR 24 WKS (STUDY DURATION: 24 WKS), Route [Carcinogen]: IP INJECTION, Route [Promoter]: DIET, Species: MOUSE, Strain/Sex: A/J/MALE): lung - negative

Clc1c(Cl)c(Cl)c(Cl)c(Cl)c1Cl
outcome (Carcinogen: DIETHYLNITROSAMINE, 55-18-5, Doses [Carcinogen]: 0.015% IN DRINKING WATER FOR 3 WK, Doses [Promoter]: 0, 0.02% IN DIET (10.5 MG/KG/D) FOR 30 WK BEGINNING 2 WK AFTER LAST CARCINOGEN DOSE (STUDY DURATION: 35 WK), Route [Carcinogen]: ORAL, Route [Promoter]: ORAL, Species: RAT, Strain/Sex: F344/MALE): liver: hepatocellular carcinoma | outcome (Carcinogen: DIETHYLNITROSAMINE, 55-18-5, Doses [Carcinogen]: 0.015% IN DRINKING WATER FOR 3 WK, Doses [Promoter]: 0, 0.02% IN DIET (12 MG/KG/D) FOR 30 WK BEGINNING 2 WK AFTER LAST CARCINOGEN DOSE (STUDY DURATION: 35 WK), Route [Carcinogen]: ORAL, Route [Promoter]: ORAL, Species: RAT, Strain/Sex: F344/FEMALE): liver: hepatocellular carcinoma

OO
outcome (Carcinogen: N-METHYL-N'-NITRO-N-NITROSOGUANIDINE, 70-25-7, Doses [Carcinogen]: 25 PPM IN WATER FOR 30 MIN, Doses [Promoter]: 0, 600, 3000 PPM IN DIETS CONTAINING HIGH (1000 PPM) LEVELS OF VITAMIN E FOR 8 MO (STUDY DURATION: 10 MO), Doses [Promoter]: 0, 600, 3000 PPM IN DIETS CONTAINING HIGH (1000 PPM) LEVELS OF VITAMIN E FOR 8 MO (STUDY DURATION: 10 MO), Route [Carcinogen]: IMMERSION, Route [Promoter]: ORAL, Species: FISH, Strain/Sex: RAINBOW TROUT/MALE, FEMALE): liver: tumor | outcome (Carcinogen: N-METHYL-N'-NITRO-N-NITROSOGUANIDINE, 70-25-7, Doses [Carcinogen]: 25 PPM IN WATER FOR 30 MIN, Doses [Promoter]: 0, 600 PPM IN DIETS CONTAINING LOW (20 PPM) LEVELS OF VITAMIN E FOR 8 MO (STUDY DURATION: 10 MO), Route [Carcinogen]: IMMERSION, Route [Promoter]: ORAL, Species: FISH, Strain/Sex: RAINBOW TROUT/MALE, FEMALE): liver: tumor

O=P(O)(O)O
outcome (Carcinogen: N-BUTYL-N-(4-HYDROXYBUTYL)NITROSAMINE, 3817-11-6, Doses [Carcinogen]: 0.05% IN DRINKING WATER FOR 4 WK, Doses [Promoter]: 0, 1.4% IN DIET FOR 32 WK BEGINNING POST CARCINOGEN TREATMENT (STUDY DURATION: 36 WK), Route [Carcinogen]: ORAL, Route [Promoter]: ORAL, Species: RAT, Strain/Sex: F344/MALE): urinary bladder: papilloma | outcome (Carcinogen: N-ETHYL-N-HYDROXYETHYLNITROSAMINE, 13147-25-6, Doses [Carcinogen]: 1000 PPM IN DIET FOR 2 WK, Doses [Promoter]: 0, 10% IN DIET OF UNILATERALLY NEPHRECTOMIZED RATS BEGINNING POST CARCINOGEN TREATMENT AND CONTINUING FOR 18 WK (STUDY D, Route [Carcinogen]: ORAL, Route [Promoter]: ORAL, Species: RAT, Strain/Sex: WISTAR/MALE): kidney: renal cell tumor | outcome (Carcinogen: N-ETHYL-N-HYDROXYETHYLNITROSAMINE, 13147-25-6, Doses [Carcinogen]: 1000 PPM IN DIET FOR 2 WK, Doses [Promoter]: 0, 50000 PPM IN DIET FOR 18 WK ADMINISTERED TO UNILATERALLY NEPHRECTOMIZED RATS (STUDY DURATION: 20 WK), Route [Carcinogen]: ORAL, Route [Promoter]: ORAL, Species: RAT, Strain/Sex: WISTAR/MALE): kidney: renal cell tumor

Cc1ccccc1O
outcome (Carcinogen: 7,12-DIMETHYLBENZ(A)ANTHRACENE, Doses [Carcinogen]: DERMAL, Route [Carcinogen]: DERMAL, Route [Promoter]: DERMAL, Species: MOUSE, Strain/Sex: FEMALE): integumentary system (skin)

CCCCCCCCCC
outcome [1]: integumentary system (skin) | outcome (Carcinogen: BENZO(A)PYRENE, Doses [Carcinogen]: TOP, Route [Carcinogen]: DERMAL, Route [Promoter]: DERMAL, Species: MOUSE, Strain/Sex: FEMALE): integumentary system (skin)

O=NN1CCCC1
outcome (Carcinogen: N-BUTYL-N-4(HYDROXYBUTYL)NITROSAMINE, 3817-11-6, Doses [Carcinogen]: 0.05% IN DRINKING WATER FOR 2 WK, Doses [Promoter]: 0, 0.02% IN DIET STARTING POST CARCINOGEN AND CONTINUING FOR 22 WK, LEFT URETER LIGATED 8 D POST CARCINOGEN (STUDY DURAT, Route [Carcinogen]: ORAL, Route [Promoter]: ORAL, Species: RAT, Strain/Sex: F344/MALE): bladder: papilloma

O=C1C2(Cl)C3(Cl)C4(Cl)C(Cl)(Cl)C5(Cl)C3(Cl)C1(Cl)C5(Cl)C24Cl (stereo unspecified)
outcome (Carcinogen: DIETHYLNITROSAMINE, 55-18-5, Doses [Carcinogen]: 20 MG/KG IN WATER ONCE, Doses [Promoter]: 0, 9 MG/KG 2/WK FOR 27 WK BEGINNING 10 D POST CARCINOGEN DOSE (STUDY DURATION: 30 WK), Route [Carcinogen]: GAVAGE, Route [Promoter]: SUBCUTANEOUS, Species: RAT, Strain/Sex: SPRAGUE-DAWLEY/FEMALE): liver: hepatocellular carcinoma

N[C@@H](Cc1c[nH]c2ccccc12)C(=O)O
outcome (Carcinogen: N-(4-(5-NITRO-2-FURYL)-2-THIAZOLYL)FORMAMIDE, Doses [Carcinogen]: DIET, Doses [Promoter]: IN DIET, Route [Carcinogen]: ORAL, Route [Promoter]: ORAL, Species: MOUSE, Strain/Sex: FEMALE): urinary bladder

C[C@H](CCC(=O)O)[C@H]1CC[C@H]2[C@@H]3CC[C@@H]4C[C@H](O)CC[C@]4(C)[C@H]3CC[C@]12C
outcome (Carcinogen: 3-METHYLCHOLANTHRENE, 56-49-5, Doses [Carcinogen]: 3 MG IN BEESWAX PELLET, Doses [Promoter]: 0, 3 MG IN BEESWAX PELLET (STUDY DURATION: 5 MO), Route [Carcinogen]: IMPLANT, Route [Promoter]: IMPLANT, Species: HAMSTER): gallbladder: tumor | outcome (Doses [Carcinogen]: IR, Route [Carcinogen]: RECTAL, Route [Promoter]: RECTAL, Species: RAT, Strain/Sex: MALE,FEMALE): colon

CCCCCCCCCCCCO
outcome [1]: integumentary system (skin)

CC(=O)O[C@@]12[C@H](OC(=O)/C=C(C)/C=C/C=C(C)/C=C/C3=C(C)CCCC3(C)C)[C@@H](C)[C@@]3(O)[C@@H](C=C(CO)C[C@]4(O)C(=O)C(C)=C[C@@H]34)[C@@H]1C2(C)C
outcome (Carcinogen: 7,12-DIMETHYLBENZ[A]ANTHRACENE, 57-97-6, Doses [Carcinogen]: 10 NMOL ONCE, Doses [Promoter]: 0, 2.5, 5 UG IN 0.2 ML ACETONE 2/WK FOR 21 WK BEGINNING 1 WK POST CARCINOGEN (STUDY DURATION: 21 WK), Doses [Promoter]: 0, 2.5, 5 UG IN 0.2 ML ACETONE 2/WK FOR 21 WK BEGINNING 1 WK POST CARCINOGEN (STUDY DURATION: 21 WK), Route [Carcinogen]: DERMAL, Route [Promoter]: DERMAL, Species: MOUSE, Strain/Sex: SENCAR/FEMALE): skin: papilloma

CC(C)(c1ccc(O)cc1)c1ccc(O)cc1
outcome (Carcinogen: 7,120Dimethylbenzanthracene (57-97-6), Doses [Carcinogen]: 30 mg/kg bw once to female offspring at 50 days of age, Doses [Promoter]: 0, 25, 250 ug/kg daily for 18 d from d 2 to d 20 postpartum to dams, Doses [Promoter]: 0, 25, 250 ug/kg daily for 18 d from d 2 to d 20 postpartum to dams, Route [Carcinogen]: Intragastric gavage, Route [Promoter]: Intragastric gavage, Species: Rat, Strain/Sex: Sprague Dawley CD/Female): breast tumors: incidence increased in offspring of 250 ug/kg dams; latent period
